Measured values published in patent publication US20230017266A1, “Cyclooxygenase-2 Inhibition for the Treatment of SAA-high Asthma” (THE USA, AS REPRESENTED BY THE SECRETARY, DEPT. OF HEALTH …, priority 2019, published 2023).

Test system: NF-κB p65
Assay: Phosphorylation of NF-κB p65 serine 529 in monocytes stimulated with HDL+SAA1 (flow cytometry)
Format: cell-based, human
Settings: A438079 10 μM for 2 h, then HDL+SAA1 15 min; CD45+/CD14+/CD16− monocytes
Method: Phosphorylation of NF-κB p65. PBMCs isolated using Lymphoprep™ were resuspended in X-VIVO™ 15 serum-free hematopoietic cell medium (Lonza, Walkersville, Md.) and treated with the P2X7R antagonist, A438079 (10 ∝M), for 2 h prior to stimulation with HDL+SAA1 for 15 min^53. Subsequent cell processing was performed at 4° C. or on ice. Cells were washed with cold PBS, centrifuged at 300×g for 5 min, and reacted in a volume of 100 ∝l PBS for 15 min with the following antibodies; APC-Cy™7 mouse anti-human CD45 clone 2D1 (catalog #557833), FITC mouse anti-human CD14 clone M5E2 (catalog #555397), APC mouse anti-human CD16 clone B73.1 (catalog #561304), all form BD Biosciences (San Jose, Calif.) and cell viability dye (L34959, ThermoFisher Scientific, Frederick, Md.). […] Cells were washed with Phosflow Perm Buffer III and PBS, resuspended in PBS, and analyzed using a Fortessa analyzer equipped with 355, 407, 488, 532 and 640 nm LASER lines using FACS DIVA 8.0 software (BD Biosciences, San Jose, Calif.). […] Mean fluorescence intensity (MFI) was calculated and overlay histogram plots were generated to quantify phosphorylation of NF-κB p65 serine 529 among various treatment conditions.

## Clc1cccc(-c2nnnn2Cc2cccnc2)c1Cl [A438079]
  HDL+SAA1-mediated phosphorylation of p65 NF-κB: attenuated
